Source: patent US12239645B2, “Targeted dosing for the treatment of complement mediated disorders” (Achillion Pharmaceuticals, Inc., priority 2018, dated 2025)
Where two headings read alike, the source gives them in different places.

What was measured:
[1] = MAD study, two additional single-dose cohorts: pharmacokinetics; type: in vivo, human; conditions: for AUC(0-t) / Cmax / Tmax / AUC(0-inf): human, plasma, oral; for AUC(0-inf): read-out: AUC0-inf, Mean
Protocol: A multiple ascending dose (MAD) study of Compound 1 with two additional single-dose cohorts was also completed. […] Secondary objectives included evaluation of the pharmacokinetic (PK) profile and the relationship between Compound 1 PK and pharmacodynamic (PD) characteristics, that is, the inhibition of complement alternative pathway (AP) activity (PK/PD). In the MAD study, multiple-dose pharmacokinetics and pharmacodynamics of Compound 1 were evaluated in four dose groups administered Compound 1 (40, 80, 120 and 200 mg BID) in the fasted state for 14-days (Table 3). Eight subjects received active drug in each group; eight subjects received placebo in the first dose group (40 mg) and two subjects received placebo in each of the other three dose groups. Two additional cohorts were administered Compound 1 at single doses of 240 mg (fasted subjects) and 120 mg (fed subjects) (Table 3). The two single-dose cohorts each comprised six subjects receiving active drug and two subjects receiving placebo. Plasma and serum samples for PK and PD assessment were collected on selected days prior to dosing (at local troughs), and on days 1, 7, and 14 at 0.5-hour to 2-hour intervals for more detailed assessment.

[2] = Phase I single ascending dose (SAD) study: plasma and urine pharmacokinetics; type: in vivo, human; conditions: for Aeu(%), GM / Aeu(%), Mean: percentage of dose
Protocol: A single ascending dose (SAD) study was the first-in-human study of Compound 1. […] Secondary objectives included evaluation of the pharmacokinetic (PK) profile and the relationship between Compound 1 PK and pharmacodynamic (PD) characteristics, that is, the inhibition of complement alternative pathway (AP) activity (PK/PD).
[…] were dosed and evaluated in 4 dose groups with ten subjects receiving placebo (Table 1). The first dose group had 6 active and 6 placebo subjects; subsequent groups had 6 active and 2 placebo subjects each. Each group was followed for 28 days after dosing. All subjects were monitored for safety through the last scheduled visit at Day 28. Blood and urine samples were collected at predefined time points from Days 1 to 4 to determine plasma and urine concentrations of Compound 1 and from Days 1 to 7 to determine complement related activities. Results of serum AP activity measured by AP Wieslab assay as well as plasma Bb, factor D level and several other PD biomarkers were determined.
For the 18 subjects comprising the Groups 1-3 SAD PK population, a total of 306 plasma samples (17 samples from each subject collected pre-dose and 0.5, 1, 1.5, 2, 2.5, 3, 4, 6, 8, 10, 12, 16, 24 [Day 2], 48 [Day 3], 72 [Day 4], and 144 [Day 7] hours post-dose) were available for PK determination in plasma.
Single ascending doses of Compound 1 were evaluated to determine plasma and urine PK parameters over the dose range of 40 mg to 120 mg studied. Summary statistics for plasma and urine Compound 1 concentration at each nominal sampling time point are presented by randomized treatment group in Table 2.

[3] = 120 mg single dose, fed moderate fat meal
[4] = 120 mg single dose, moderate-fat meal vs fasted (SAD)
[5] = 40 mg single dose, fasted, plasma
[6] = 40 mg single dose, fasted, urine
[7] = 80 mg single dose, fasted, plasma
[8] = 80 mg single dose, fasted, urine
[9] = 120 mg single dose, fasted, plasma
[10] = 120 mg single dose, fasted, urine

For `CC(=O)c1nn(CC(=O)N2[C@H](C(=O)Nc3nc(Br)ccc3C)C[C@@]3(C)C[C@@H]23)c2ccc(-c3cnc(C)nc3)cc12` [Compound 1, (1R,3S,5R)-2-(2-(3-acetyl-5-(2-methylpyrimidin-5-yl)-1H-indazol-1-yl)acetyl)-N-(6-bromo-3-methylpyridin-2-yl)-5-methyl-2-azabicyclo[3.1.0]hexane-3-carboxamide], the “t½term, Mean” value [1, 3] was 9.39 h, the “mean AUC lower in the fed state vs fasted” value [1, 4] was 00.8% and the “mean Cmax lower in the fed state vs fasted” value [1, 4] was 2.2%. For the same molecule, the “t½term, Mean” value ([1]; 240 mg single dose, fasted) was 9.33 h, the AUC(0-t) ([1]; 120 mg, 120 mg single dose, fed moderate fat meal, read-out: AUC(0-12), Mean) was 1250 ng·h/mL and the AUC(0-t) ([1]; 120 mg, 120 mg single dose, fed moderate fat meal, read-out: AUC(0-72), Mean) was 1490 ng·h/mL. For the same molecule, the AUC(0-t) ([1]; 240 mg, 240 mg single dose, fasted, read-out: AUC(0-12), Mean) was 2770 ng·h/mL, the AUC(0-t) ([1]; 240 mg, 240 mg single dose, fasted, read-out: AUC(0-72), Mean) was 3510 ng·h/mL and the Cmax [1, 3] was 309 ng/mL. For the same molecule, the Tmax [1, 3] was 2.83 h, the AUC(0-inf) [1, 3] was 1490 ng·h/mL and the Cmax ([1]; 240 mg single dose, fasted) was 594 ng/mL. The Tmax ([1]; 240 mg single dose, fasted) was 2.67 h, the AUC(0-inf) ([1]; 240 mg single dose, fasted) was 3520 ng·h/mL and the “Maximum mean plasma concentration” value ([2]; 40 mg single dose) was 78.03 ± 19.65 ng/mL. The “CL/F, GM” value [2, 5] was 81.26 L/h, the “CL/F, Mean” value [2, 5] was 84.27 L/h and the “t½term, GM” value [2, 5] was 12.51 h. The “t½term, Mean” value [2, 5] was 13.08 h, the “Aeu, GM” value [2, 6] was 0.0671 mg and the “Aeu, Mean” value [2, 6] was 0.0749 mg. For the same molecule, the “Aeu(%), GM” value [2, 6] was 0.17%, the “Aeu(%), Mean” value [2, 6] was 0.19% and the “Maximum mean plasma concentration” value ([2]; 80 mg single dose) was 224.05 ± 108.27 ng/mL. For the same molecule, the “CL/F, GM” value [2, 7] was 63.52 L/h, the “CL/F, Mean” value [2, 7] was 70.25 L/h and the “t½term, GM” value [2, 7] was 9.80 h. For the same molecule, the “t½term, Mean” value [2, 7] was 9.92 h, the “Aeu, GM” value [2, 8] was 0.2045 mg and the “Aeu, Mean” value [2, 8] was 0.3058 mg. The “Aeu(%), GM” value [2, 8] was 0.26%, the “Aeu(%), Mean” value [2, 8] was 0.38% and the “Maximum mean plasma concentration” value ([2]; 120 mg single dose) was 282.83 ± 89.15 ng/mL. The “CL/F, GM” value [2, 9] was 71.87 L/h, the “CL/F, Mean” value [2, 9] was 73.25 L/h and the “t½term, GM” value [2, 9] was 12.67 h. The “t½term, Mean” value [2, 9] was 13.90 h, the “Aeu, GM” value [2, 10] was 0.2683 mg and the “Aeu, Mean” value [2, 10] was 0.2913 mg. For the same molecule, the “Aeu(%), GM” value [2, 10] was 0.22%, the “Aeu(%), Mean” value [2, 10] was 0.24% and the “last post-dose time point with detected plasma concentration” value ([2]; all SAD dose groups) was 72 h. It also gave a CL renal ([2]; human, plasma and urine, oral, 40 mg to 120 mg single dose, read-out: Renal clearance, geometric mean, range over dose groups) of 2.67 to 3.17 mL/min, an AUC(0-inf) ([2]; human, plasma, oral, 40 mg, 40 mg single dose, fasted, plasma, read-out: AUC0-inf, GM) of 492 ng·h/mL and an AUC(0-inf) ([2]; human, plasma, oral, 40 mg, 40 mg single dose, fasted, plasma, read-out: AUC0-inf, Mean) of 514 ng·h/mL. It also gave a Cmax ([2]; human, plasma, oral, 40 mg, 40 mg single dose, fasted, plasma, read-out: Cmax, GM) of 85.3 ng/mL, a Cmax ([2]; human, plasma, oral, 40 mg, 40 mg single dose, fasted, plasma, read-out: Cmax, Mean) of 88.6 ng/mL and a Cmax ([2]; human, plasma, oral, 40 mg, 40 mg single dose, fasted, plasma, read-out: Cmax, Median) of 79.1 ng/mL. For the same molecule, the Vd/F ([2]; human, plasma, oral, 40 mg, 40 mg single dose, fasted, plasma, read-out: Vz/F, GM) was 1470 L, the Vd/F ([2]; human, plasma, oral, 40 mg, 40 mg single dose, fasted, plasma, read-out: Vz/F, Mean) was 1500 L and the Tmax ([2]; human, plasma, oral, 40 mg, 40 mg single dose, fasted, plasma, read-out: tmax, GM) was 1.65 h. The Tmax ([2]; human, plasma, oral, 40 mg, 40 mg single dose, fasted, plasma, read-out: tmax, Mean) was 1.75 h, the Tmax ([2]; human, plasma, oral, 40 mg, 40 mg single dose, fasted, plasma, read-out: tmax, Median) was 1.5 h and the AUC(0-inf) ([2]; human, plasma, oral, 80 mg, 80 mg single dose, fasted, plasma, read-out: AUC0-inf, GM) was 1260 ng·h/mL. It also gave an AUC(0-inf) ([2]; human, plasma, oral, 80 mg, 80 mg single dose, fasted, plasma, read-out: AUC0-inf, Mean) of 1390 ng·h/mL, a Cmax ([2]; human, plasma, oral, 80 mg, 80 mg single dose, fasted, plasma, read-out: Cmax, GM) of 232 ng/mL and a Cmax ([2]; human, plasma, oral, 80 mg, 80 mg single dose, fasted, plasma, read-out: Cmax, Mean) of 253 ng/mL. It also gave a Cmax ([2]; human, plasma, oral, 80 mg, 80 mg single dose, fasted, plasma, read-out: Cmax, Median) of 247 ng/mL, a Vd/F ([2]; human, plasma, oral, 80 mg, 80 mg single dose, fasted, plasma, read-out: Vz/F, GM) of 899 L and a Vd/F ([2]; human, plasma, oral, 80 mg, 80 mg single dose, fasted, plasma, read-out: Vz/F, Mean) of 992 L. The Tmax ([2]; human, plasma, oral, 80 mg, 80 mg single dose, fasted, plasma, read-out: tmax, GM) was 1.85 h, the Tmax ([2]; human, plasma, oral, 80 mg, 80 mg single dose, fasted, plasma, read-out: tmax, Mean) was 2 h and the Tmax ([2]; human, plasma, oral, 80 mg, 80 mg single dose, fasted, plasma, read-out: tmax, Median) was 1.75 h. The AUC(0-inf) ([2]; human, plasma, oral, 120 mg, 120 mg single dose, fasted, plasma, read-out: AUC0-inf, GM) was 1670 ng·h/mL, the AUC(0-inf) ([2]; human, plasma, oral, 120 mg, 120 mg single dose, fasted, plasma, read-out: AUC0-inf, Mean) was 1710 ng·h/mL and the Cmax ([2]; human, plasma, oral, 120 mg, 120 mg single dose, fasted, plasma, read-out: Cmax, GM) was 303 ng/mL. It also gave a Cmax ([2]; human, plasma, oral, 120 mg, 120 mg single dose, fasted, plasma, read-out: Cmax, Mean) of 316 ng/mL, a Cmax ([2]; human, plasma, oral, 120 mg, 120 mg single dose, fasted, plasma, read-out: Cmax, Median) of 260 ng/mL and a Vd/F ([2]; human, plasma, oral, 120 mg, 120 mg single dose, fasted, plasma, read-out: Vz/F, GM) of 1310 L. It also gave a Vd/F ([2]; human, plasma, oral, 120 mg, 120 mg single dose, fasted, plasma, read-out: Vz/F, Mean) of 1460 L, a Tmax ([2]; human, plasma, oral, 120 mg, 120 mg single dose, fasted, plasma, read-out: tmax, GM) of 2.54 h and a Tmax ([2]; human, plasma, oral, 120 mg, 120 mg single dose, fasted, plasma, read-out: tmax, Mean) of 2.58 h. For the same molecule, the Tmax ([2]; human, plasma, oral, 120 mg, 120 mg single dose, fasted, plasma, read-out: tmax, Median) was 2.75 h, the half-life ([2]; human, plasma, oral, 40 mg to 120 mg single dose, read-out: Mean terminal elimination half-life (t1/2 term), range over dose groups) was 9.92 to 13.9 h and the Tmax ([2]; human, plasma, oral, 40 mg to 120 mg single dose, read-out: Median tmax, range over dose groups) was 1.5 to 2.75 h. It also gave a CL renal ([2]; human, urine, oral, 40 mg, 40 mg single dose, fasted, urine, read-out: CLr, GM (converted)) of 2.67 mL/min, a CL renal ([2]; human, urine, oral, 40 mg, 40 mg single dose, fasted, urine, read-out: CLr, Mean (converted)) of 2.67 mL/min and a CL renal ([2]; human, urine, oral, 80 mg, 80 mg single dose, fasted, urine, read-out: CLr, GM (converted)) of 3 mL/min. For the same molecule, the CL renal ([2]; human, urine, oral, 80 mg, 80 mg single dose, fasted, urine, read-out: CLr, Mean (converted)) was 3.5 mL/min, the CL renal ([2]; human, urine, oral, 120 mg, 120 mg single dose, fasted, urine, read-out: CLr, GM (converted)) was 3.17 mL/min and the CL renal ([2]; human, urine, oral, 120 mg, 120 mg single dose, fasted, urine, read-out: CLr, Mean (converted)) was 3.5 mL/min.
